Reference: patent US20250073248A1, “BIORESORBABLE CATIONIC STEROIDAL ANTIMICROBIAL COMPOUNDS WITH GLYCERIDE LINKAGES” (BRIGHAM YOUNG UNIVERSITY, priority 2023, published 2025)
≈ marks a conversion by molar mass, not a printed value.

What was measured:
C. auris CDC 390 = test: MIC/MFC of CSA-4110, fungi (Table 4); format: cell-based, Candida auris; details: Candidozyma auris, CDC390
Description: (§1) All compounds were screened against these pathogens to determine their minimum inhibitory concentration (MIC), minimum bactericidal concentration (MBC), and minimum fungicidal concentration (MFC) using a broth microdilution method. […] Of these three, only CSA-4110 was similarly active against PA01and CA, inhibiting growth at 8 μg/mL.
(§2) CSA-4110 was evaluated further against a broader range of bacterial and fungal strains. Acinetobacter baumannii and several isolates of Staphylococcus aureus, Klebsiella pneumoniae, and Candida auris were selected, further broadening the coverage of high and critical priority pathogens. Streptococcus uberis, Staphylococcus pseudintermedius, Proteus mirabilis, and Escherichia coli were also screened to obtain a more complete efficacy profile. […] For comparison, previous work established the MICs of CSA-131 against strains of Staphylococcus aureus, Pseudomonas aeruginosa, and Candida albicans at 0.5-2 μg/mL

C. auris CDC 389 = test: MIC/MFC of CSA-4110, fungi (Table 4); format: cell-based, Candida auris; details: Candidozyma auris, CDC389
Description: as §1, §2

C. auris CDC 381 = test: MIC/MFC of CSA-4110, fungi (Table 4); format: cell-based, Candida auris; details: Candidozyma auris, CDC381
Description: as §1, §2

C. auris CDC 388 = test: MIC/MFC of CSA-4110, fungi (Table 4); format: cell-based, Candida auris; details: Candidozyma auris, CDC388
Description: as §1, §2

C. auris CDC 383 = test: MIC/MFC of CSA-4110, fungi (Table 4); format: cell-based, Candida auris; details: Candidozyma auris, CDC383
Description: as §1, §2

C. auris CDC 386 = test: MIC/MFC of CSA-4110, fungi (Table 4); format: cell-based, Candida auris; details: Candidozyma auris, CDC386
Description: as §1, §2

C. auris CDC 382 = test: MIC/MFC of CSA-4110, fungi (Table 4); format: cell-based, Candida auris; details: Candidozyma auris, CDC382
Description: as §1, §2

physchem = format: physicochemical; details: for half-life: buffer
Description: The stability, more particularly the rate of hydrolysis in water, of CSA-4110 was tested at various pH values or when exposed to lipase.
To measure the stability of CSA-4110 under various conditions (pH and presence of lipase), monitored degradation over time by HPLC. To enable UV/visible detection, CSA-4110 required derivatization with a chromophore. A precolumn derivatization method was adapted using Fmoc-Cl. This method also required CSA-131 as an internal standard to eliminate errors due to volumetric variations.
With a reliable quantitative analysis method in hand, the optimal storage conditions were determined for CSA-4110 in solution and how quickly CSA-4110 degrades when exposed to mammalian lipases and varied pH. Reference is again made to FIGS. 3A-3D.

MRSA ATCC BAA-42 [1] = test: Membrane depolarization, DiSC2(5) fluorescence; format: cell-based, Staphylococcus aureus; details: 8 μg/mL, added at 140 seconds, FIG. 5
Description: Reference is made to FIGS. 4 and 5. […] CSA-131 or CSA-4110 was added at 140 second to achieve 8 μg/mL after addition.
Antimicrobial peptides (AMPs) and CSA compounds are known to permeabilize bacterial membranes. For bacterial survival, the cytoplasmic membrane must be polarized. Depolarization of this membrane prevents ATP synthesis and leads to cell death. The dye 3,3′-diethylthiadicarbocyanine iodide (DiSC2(5)) can be used to measure cell membrane polarization. Fluorescence of this dye is decreased when it inserts into polarized membranes, and membrane depolarization results in substantial increases in fluorescence (see FIG. 5).
MRSA was used to explore the impact of CSA-4110 on membrane depolarization and compared results to those with ceragenin CSA-131. […] Fluorescence was monitored over time after addition of CSA-4110 or CSA-131. which incorporated into cellular membranes.

S. uberis ATCC 27958 = test: MIC/MBC of CSA-4110, Gram positive bacteria (Table 2); format: cell-based; details: Streptococcus uberis, ATCC27958
Description: as §1, §2

S. aureus ATCC 6538 = test: as above; format: cell-based; details: Staphylococcus aureus, ATCC6538
Description: as §1, §2

MRSA ATCC BAA-42 [2] = test: as above; format: cell-based; details: Staphylococcus aureus
Description: as §1, §2

S. aureus ATCC 25923 = test: as above; format: cell-based; details: Staphylococcus aureus, ATCC25923
Description: as §1, §2

[3] = test system: S. psuedintermedius ATCC 49444; test: as above; format: cell-based; details: Staphylococcus pseudintermedius, ATCC49444
Description: as §1, §2

S. aureus ATCC 27734 = test: as above; format: cell-based; details: Staphylococcus aureus, ATCC27734
Description: as §1, §2

[4] = test system: Pseudomonas aeruginosa 01 (PA01); test: MIC and MBC, broth microdilution, PA01 (Table 1); format: cell-based; details: Pseudomonas aeruginosa
Text: To investigate the antimicrobial impact of structural variance in the novel bioresorbable CSA compounds disclosed herein,Pseudomonas aeruginosa 01 (PA01), methicillin-resistant Staphylococcus aureus (MRSA), and Candida albicans (CA) were selected, representing Gram-negative bacterial, Gram-positive bacterial, and fungal pathogens of high or critical priority on the world health organization's priority lists for bacteria and fungi. Earlier applications of CSA compounds have focused on preventing medical device infections, and all three strains are commonly found in colonized implants, making efficacy against these pathogens an important indicator of future applicability.
as §1

[5] = Critical micelle concentration, orange OT dye solubilization; format: physicochemical; details: aqueous solution with orange OT dye, water; FIG. 4; read-out: critical micelle concentration (CMC), solubilization of orange OT
Description: Previous studies have shown membrane disruption and permeabilization to be the mechanism of action of other CSA compounds. The critical micelle concentration (CMC) of CSA-4110 was measured to determine if aggregation was necessary for antimicrobial activity (see FIG. 4). This assay involves using a hydrophobic dye (orange OT) that is insoluble in water to measure what concentration of CSA-4110 is required to solubilize orange OT. Entry of orange OT into solution is due to micelle formation by CSA-4110 and can be quantified with a spectrophotometer.

CCCCCCCCCC(=O)OCC(O)COC(=O)CC[C@@H](C)[C@H]1CC[C@H]2[C@@H]3[C@H](OC(=O)CCN)C[C@@H]4C[C@H](OC(=O)CCN)CC[C@]4(C)[C@H]3C[C@H](OC(=O)CCN)[C@]12C (stereo partly shown) [CSA-4110]
MBC (C. auris CDC 390): 16 µg/mL (≈ 18.8 µM) | MIC (C. auris CDC 390): 8 µg/mL (≈ 9.41 µM) | MBC (C. auris CDC 389): 16 µg/mL (≈ 18.8 µM) | MIC (C. auris CDC 389): 8 µg/mL (≈ 9.41 µM) | MBC (C. auris CDC 381): 8 µg/mL (≈ 9.41 µM) | MIC (C. auris CDC 381): 8 µg/mL (≈ 9.41 µM) | MBC (C. auris CDC 388): 16 µg/mL (≈ 18.8 µM) | MIC (C. auris CDC 388): 8 µg/mL (≈ 9.41 µM) | MBC (C. auris CDC 383): 16 µg/mL (≈ 18.8 µM) | MIC (C. auris CDC 383): 8 µg/mL (≈ 9.41 µM) | MBC (C. auris CDC 386): 16 µg/mL (≈ 18.8 µM) | MIC (C. auris CDC 386): 8 µg/mL (≈ 9.41 µM) | MBC (C. auris CDC 382): 16 µg/mL (≈ 18.8 µM) | MIC (C. auris CDC 382): 8 µg/mL (≈ 9.41 µM) | half-life (physchem; pH 7.2): 4.5 days | half-life (physchem; pH 10): 1 days | stability / hydrolysis in aqueous solution (physchem; pH 7.2): less stable | stability / hydrolysis in aqueous solution (physchem; pH 10): unstable | fluorescence of DiSC2(5) after addition (membrane depolarization) (MRSA ATCC BAA-42 [1]): rapid increase of fluorescence | MBC (S. uberis ATCC 27958): 4 µg/mL | MIC (S. uberis ATCC 27958): 2 µg/mL | MBC (S. aureus ATCC 6538): 8 µg/mL | MIC (S. aureus ATCC 6538): 4 µg/mL | MBC (MRSA ATCC BAA-42 [2]): 2 µg/mL | MIC (MRSA ATCC BAA-42 [2]): 2 µg/mL | MBC (S. aureus ATCC 25923): 8 µg/mL | MIC (S. aureus ATCC 25923): 4 µg/mL | MBC [3]: 4 µg/mL | MIC [3]: 4 µg/mL | MBC (S. aureus ATCC 27734): 4 µg/mL | MIC (S. aureus ATCC 27734): 4 µg/mL | MBC ([4]; MBC, value in parentheses): 32 µg/mL (≈ 37.6 µM) | MIC ([4]; first value of cell): 8 µg/mL (≈ 9.41 µM) | critical micelle concentration [5]: ~1000 µg/mL
